# From article PMC11172460 (International Journal of Molecular Sciences, 2024)
# Columns and labels:
# [1] = In vitro dissolution and release from SLMs; type: physicochemical; settings: within 6 h, DPBS/MeOH 70:30 v/v, 37 °C
# Protocol: Fer-Ger dissolution and release from the SLMs were evaluated by adding raw Fer-Ger (about 0.1 mg) or SLMs, containing an equivalent amount of Fer-Ger, to 60 mL of a mixture of DPBS and methanol (70:30 v/v). The samples were kept under mechanical stirring at 50 rpm and 37 °C. At defined time intervals, 0.2 mL aliquots of the medium were withdrawn and replaced with an equal volume of fresh fluid. The aliquots were filtered (0.45 μm) and injected (10 μL) into the HPLC apparatus for Fer-Ger quantification. The dissolution or release (%) of Fer-Ger was calculated from its total amount incubated as a free compound or contained in the SLMs, respectively. The data were determined from the average of three independent experiments.
# [2] = Hydrolysis kinetics in rat brain homogenates; type: in vitro ADME; settings: within 3 h, 37 °C, 30 µM
# Protocol: Brains were obtained from male Wistar rats, which were sacrificed by decapitation after a slight isoflurane anesthesia. The brains were immediately separated and homogenized in 5 volumes (w/v) of Tris HCl (50 mM, pH 7.4, 4 °C) using an ultra-Turrax (IKA Werke GmbH & Co. KG, Staufen, Germany) with 3 × 15 s bursts. After centrifugation of the homogenate (3000× g for 15 min at 4 °C), the supernatant was isolated and stored at −80 °C until its use for in vitro kinetic studies. The Lowry procedure was adopted to quantify the total protein concentration in the brain homogenate, resulting in 7.4 ± 0.4 μg protein/μL.
# Kinetic analysis of Fer-Ger was performed by its incubation at 37 °C in 3 mL of rat liver or brain homogenates at 30 µM (9.92 µg/mL) final concentration. At defined time intervals, 100 μL of homogenates were withdrawn and immediately treated by quenching them in EtOH (250 µL), then an internal standard (100 μM carbazole dissolved in EtOH, 50 µL) was added. […]
# (§1) The Fer-Ger degradation in whole blood or homogenates was analyzed as exponential decay plots of its concentrations versus incubation time, and the related half-life values were obtained from the linear regression of the corresponding semi-logarithmic plots. The quality of the fits was evaluated by considering the correlation coefficients (r) and p values. […]
# (§2) Fer-Ger and its hydrolysis product, Ger, were quantified by HPLC. […]
# [3] = Hydrolysis kinetics in human whole blood; type: in vitro ADME
# Protocol: Kinetic analysis of Fer-Ger was performed by incubating the compound at 37 °C in heparinized whole blood obtained from healthy human volunteers or from male Wistar rats weighing 200–250 g. In particular, appropriate amounts of stock solution in DMSO were added to a volume of 3 mL of whole blood in order to obtain the final concentration of 30 µM (9.92 µg/mL). Samples (100 μL) were withdrawn at defined time intervals and immediately treated. Specifically, they were firstly added to ice-cold water (500 µL); then, sulfosalicylic acid (10%, 50 µL) and the internal standard (100 μM carbazole dissolved in a mixture of MeOH and H2O 50:50 v/v, 50 µL) were added; finally, 1 mL of H2O-saturated ethyl acetate was used twice as extraction solvent. The samples were centrifuged (13,500× g for 10 min) and the organic phase was evaporated under a nitrogen stream. The residue was re-suspended in a mixture of H2O and CH3CN (50:50 v/v, 150 µL) and centrifuged (16,000× g for 5 min). […]
# as §1, §2
# [4] = tested on: differentiated N2a cells; experiment: MTT assay of H2O2-altered viability (neuroprotection); type: cell-based, mouse; settings: then 100 µM H2O2 for 24 h
# Protocol: N2a cells were seeded on T75 flasks and grown in Dulbecco’s Modified Eagle Medium (DMEM) containing Glutamax, supplemented with 100 μg/mL streptomycin, 100 IU/mL penicillin, and 10% fetal bovine serum (FBS) in a humidified 5% CO2 atmosphere at 37 °C. After two passages by trypsinization, cells were seeded at a density of 5 × 10^3 cells/well in 12-well plates with 2 mL of DMEM or at a density of 5 × 10^2 cells/well in 96-well plates with 0.2 mL of DMEM, depending on the study (see below). For neural differentiation, N2a cells were allowed to adhere and proliferate in wells for 4 days; then, after washing once with serum-free DMEM, differentiating medium composed of DMEM containing 1% HS and 20 μM all-trans-retinoic acid (atRA) was added in both the seeding conditions, up to 6 days of differentiation, after which the cells were used for the experiments.
# The MTT assay was also carried out to determine the neuroprotective effect of Fer-Ger on H2O2-induced cell oxidative stress in N2a neuronal cells. Briefly, N2a cells (5 × 10^2) were seeded and differentiated into 96-well plates, as reported above. Then, cells were incubated with 1 µM and 5 µM Fer-Ger dissolved in DMEM containing 0.5% HS for 1 h in a humidified 5% CO2 atmosphere at 37 °C. The experimental design therefore included cells incubated with only culture medium as a control and cells incubated for 24 h with 100 µM H2O2 as a damage-inducing agent after 1 h of preincubation in the absence or presence of 1 µM or 5 µM Fer-Ger. Then, 20 μL of MTT (5 mg/mL) was added into the 200 µL of the incubation medium. Four hours later, the medium containing MTT was aspirated and replaced by 100 µL of dimethyl sulfoxide (DMSO) solubilization agent for 1 h at 37 °C in an orbital shaker incubator. Finally, the absorbance of each well was measured at 570 nm using a microtiter plate reader (Sunrise® Microplate Reader, Tecan Trading AG, Männedorf, Switzerland).
# [5] = Kinetic analysis (stability) in Tris-HCl buffer; type: physicochemical; settings: Tris-HCl buffer pH 7.4 (with MeOH 70:30), 37 °C, three hours, 20 µM
# Protocol: Kinetic analysis of Fer-Ger was performed by its incubation at 20 µM (6.61 µg/mL) final concentration and at 37 °C in 30 mL of a mixture of Tris-HCl buffer 50 mM (pH 7.4) and MeOH 70:30 (v/v). […] All the values were derived from the mean of three independent incubation experiments.
# Fer-Ger and its hydrolysis product, Ger, were quantified by HPLC. The chromatographic apparatus consisted of a modular system (model LC-40D) pump and DAD detector (model SPD-M40, Shimadzu, Kyoto, Japan) and an injection valve with a 20 μL sample loop (model 7725; Rheodyne, IDEX, Torrance, CA, USA).
smiles,measurement,setting,value
"COc1cc(/C=C/C(=O)OC/C=C(\C)CCC=C(C)C)ccc1O [Fer-Ger, Geranyl ferulate]",raw powder solubilized (dissolution),[1],about 30%
same,hydrolysis / stability,[2],total absence of hydrolysis processes
same,remaining amount of Fer-Ger,"[3]; after three hours of incubation in human whole blood, % of overall incubated amount",about 50%
same,half-life at 30 µM,"[3]; heparinized whole blood, human whole blood, 37 °C, 30 µM, pseudo-first order kinetic, read-out: half-life (t1/2) of hydrolysis",3.23 ± 0.349 h
same,prevention of H2O2-induced cell viability damage,[4]; 1 µM Fer-Ger preincubated 1 h,fully prevented
same,prevention of H2O2-induced cell viability damage,[4]; 5 µM Fer-Ger preincubated 1 h,fully prevented
same,degradation in Tris-HCl buffer,[5],not degraded
